Patent US7902373B2 (Pfizer Inc, priority 2006, dated 2011)

molecular target: human recombinant H-PGDS (Homo sapiens, UniProt O60760); test: Fluorescence intensity h-PGDS TBA enzyme assay; assay type: biochemical; settings: Examples up to 622 (and 3a, 3b)
Sequence (O60760 whole entry): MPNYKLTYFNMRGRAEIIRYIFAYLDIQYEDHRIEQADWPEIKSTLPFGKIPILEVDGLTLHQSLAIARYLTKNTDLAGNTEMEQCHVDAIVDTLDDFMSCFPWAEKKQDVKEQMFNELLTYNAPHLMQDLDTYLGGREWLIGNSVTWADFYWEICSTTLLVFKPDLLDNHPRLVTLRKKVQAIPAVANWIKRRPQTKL

Structure (SMILES) | IC50 [nM]
O=C(NC1CCN(Cc2ncc[nH]2)CC1)c1ccc(-c2cccc(F)c2)nc1 [Example 300, 6-(3-Fluorophenyl)-N-[1-(1H-imidazol-2-ylmethyl)piperidin-4-yl]nicotinamide] | 0.362
O=C(NC1CCN(CCCc2ccccc2)CC1)c1ccc(-c2cccc(F)c2)nc1 [Example 301, 6-(3-Fluorophenyl)-N-[1-(3-phenylpropyl)piperidin-4-yl]nicotinamide] | 1.16
Cc1cc(CN2CCC(NC(=O)c3ccc(-c4cccc(F)c4)nc3)CC2)ccc1F [Example 302, N-[1-(4-Fluoro-3-methylbenzyl)piperidin-4-yl]-6-(3-fluorophenyl)nicotinamide] | 0.636
N#Cc1cc(CN2CCC(NC(=O)c3ccc(-c4cccc(F)c4)nc3)CC2)ccc1F [Example 303, N-[1-(3-Cyano-4-fluorobenzyl)piperidin-4-yl]-6-(3-fluorophenyl)nicotinamide] | 0.662
O=C(NC1CCN(Cc2ccc3[nH]ccc3c2)CC1)c1ccc(-c2cccc(F)c2)nc1 [Example 304, 6-(3-Fluorophenyl)-N-[1-(1H-indol-5-ylmethyl)piperidin-4-yl]nicotinamide] | 2.11
COc1cc(C)cc(OC)c1CN1CCC(NC(=O)c2ccc(-c3cccc(F)c3)nc2)CC1 [Example 305, N-[1-(2,6-Dimethoxy-4-methylbenzyl)piperidin-4-yl]-6-(3-fluorophenyl)nicotinamide] | 2.7
CCOc1cc(OC)ccc1CN1CCC(NC(=O)c2ccc(-c3cccc(F)c3)nc2)CC1 [Example 306, N-[1-(2-Ethoxy-4-methoxybenzyl)piperidin-4-yl]-6-(3-fluorophenyl)nicotinamide] | 2.71
Cc1ccc(-c2n[nH]cc2CN2CCC(NC(=O)c3ccc(-c4cccc(F)c4)nc3)CC2)cc1 [Example 307, 6-(3-Fluorophenyl)-N-(1-{[3-(4-methylphenyl)-1H-pyrazol-4-yl]methyl}piperidin-4-yl)nicotinamide] | 0.784
N#Cc1ccc(Oc2ccc(CN3CCC(NC(=O)c4ccc(-c5cccc(F)c5)nc4)CC3)cn2)cc1 [Example 308, N-(1-{[6-(4-Cyanophenoxy)pyridin-3-yl]methyl}piperidin-4-yl)-6-(3-fluorophenyl)nicotinamide] | 2.03
O=C(NC1CCN(CC2=C(Cl)c3cc(F)ccc3OC2)CC1)c1ccc(-c2cccc(F)c2)nc1 [Example 309, N-(1-[(4-Chloro-6-fluoro-2H-chromen-3-yl)methyl]piperidin-4-yl)-6-(3-fluorophenyl)nicotinamide] | 4.32
O=C(NC1CCN(Cc2cc(=O)[nH]c(=O)[nH]2)CC1)c1ccc(-c2cccc(F)c2)nc1 [Example 310, N-{1-[(2,6-Dioxo-1,2,3,6-tetrahydropyrimidin-4-yl)methyl]piperidin-4-yl)-6-(3-fluorophenyl)nicotinamide] | 4.78
COC(=O)c1ccc2[nH]cc(CN3CCC(NC(=O)c4ccc(-c5cccc(F)c5)nc4)CC3)c2c1 [Example 311, Methyl 3-{[4-({[6-(3-fluorophenyl)pyridin-3-yl]carbonyl}amino)piperidin-1-yl]methyl}-1H-indole-5-carboxylate] | 1.72
O=C(NC1CCN(CCCC(F)(F)F)CC1)c1ccc(-c2cccc(F)c2)nc1 [Example 312, 6-(3-Fluorophenyl)-N-[1-(4,4,4-trifluorobutyl)piperidin-4-yl]nicotinamide] | 1.08
O=C(NC1CCN(Cc2ccc3c(c2)CCO3)CC1)c1ccc(-c2cccc(F)c2)nc1 [Example 313, N-[1-(2,3-Dihydro-1-benzofuran-5-ylmethyl)piperidin-4-yl]-6-(3-fluorophenyl)nicotinamide] | 2.15
Cn1nc(C(F)(F)F)c(CN2CCC(NC(=O)c3ccc(-c4cccc(F)c4)nc3)CC2)c1Cl [Example 314, N-(1-{[5-Chloro-1-methyl-3-(trifluoromethyl)-1H-pyrazol-4-yl]methyl}piperidin-4-yl)-6-(3-fluorophenyl)nicotinamide] | 0.24
